This is an account of results in US20110152166A1, “METHOD OF MODULATION OF PROTEIN PHOSPHORYLATION-DEPENDENT CONFORMATIONAL TRANSITIONS WITH LOW MOLECULAR WEIGHT COMPOUNDS” (priority 2006, published 2011).

Common to all, as to assay type: biochemical
The target in one test is T1, GST-PDK1 [Arg131Ala] (Homo sapiens, UniProt O15530, R131A).
T1 construct: different protein constructs, comprising the full length protein or the catalytic domain alone; made in house; host or cells: HEK293 cells (pEBG-2T-PDK1 mutant)
T1 sequence (O15530 1-556 R131A): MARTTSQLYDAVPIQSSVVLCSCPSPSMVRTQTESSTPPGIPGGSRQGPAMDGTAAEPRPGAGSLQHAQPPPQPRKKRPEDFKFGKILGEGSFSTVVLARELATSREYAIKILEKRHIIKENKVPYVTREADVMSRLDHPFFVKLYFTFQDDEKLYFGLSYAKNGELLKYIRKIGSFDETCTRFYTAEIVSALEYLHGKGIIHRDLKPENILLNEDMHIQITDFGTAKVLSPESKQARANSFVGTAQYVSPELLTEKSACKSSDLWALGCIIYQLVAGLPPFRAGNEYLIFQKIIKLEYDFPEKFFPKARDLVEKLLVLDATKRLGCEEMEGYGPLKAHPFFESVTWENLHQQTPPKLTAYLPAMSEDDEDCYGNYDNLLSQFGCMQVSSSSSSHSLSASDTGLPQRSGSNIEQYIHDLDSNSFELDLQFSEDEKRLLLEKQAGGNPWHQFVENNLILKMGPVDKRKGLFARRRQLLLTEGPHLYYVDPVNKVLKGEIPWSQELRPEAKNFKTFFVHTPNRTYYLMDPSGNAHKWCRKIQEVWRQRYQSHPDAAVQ
The test can be described thus: PDK1 activity assay with T308tide. The note with it: for AC50 / Max. activity: GST-PDK1 [Arg131Ala].

A further test has as its target T2, GST-PDK1 [Val124Leu] (Homo sapiens, UniProt O15530, V124L).
T2 construct: different protein constructs, comprising the full length protein or the catalytic domain alone; made in house; host or cells: HEK293 cells (pEBG-2T-PDK1 mutant)
T2 sequence (O15530 1-556 V124L): T1 sequence (O15530 1-556 R131A) with V124L, A131R
The test can be described thus: PDK1 activity assay with T308tide.

Another test has as its target T3, S6K1-T2-[Thr412Glu] (Homo sapiens, UniProt P23443, T412E).
T3 construct: made in house; host or cells: HEK293
Briefly: AGC kinase panel activity assay (Crosstide). The note with it: for S6K1 (%) activity: 1% DMSO = 100%. The protocol:
(§1) Protein kinase activity tests were performed essentially as previously described (Balendran et al., 2000; Biondi et al., 2000; Biondi et al., 2001). Substrates used were either MBP (for PKCζ or polypeptides (Crosstide for PKB, S6K, SGK and PRK2; T308tide for PDK1, and Kemptide for PKA). PKA (Sigma) was measured in the presence of 100 μM cAMP. Alternatively, assays were performed in a 96 well format, aliquots spotted on p81 phosphocellulose papers (Whatmann), washed in 0.01% phosphoric acid, dried, and then exposed and analysed using Phospholmager technology (Storm, Molecular Dynamics). Activity measurements were performed in duplicates with less than 10% difference between duplicate pairs. Experiments were repeated at least twice, although most of the experiments were repeated multiple times, with similar results.
(§2) Activity assays for each kinase were performed as described in Materials and Methods in the presence of 1% DMSO (100%). Except PKA, all protein kinases were produced as a GST-fusion. S6K1, PKBα, SGK mutants used were S6K1-T2-[Thr412Glu], PKBa[Ser473Asp] and ΔN-SGK[Ser422Asp].

The target of the next test is T4, PRK2 (Homo sapiens, UniProt Q16513).
T4 construct: made in house; host or cells: HEK293
T4 sequence (Q16513 501-984): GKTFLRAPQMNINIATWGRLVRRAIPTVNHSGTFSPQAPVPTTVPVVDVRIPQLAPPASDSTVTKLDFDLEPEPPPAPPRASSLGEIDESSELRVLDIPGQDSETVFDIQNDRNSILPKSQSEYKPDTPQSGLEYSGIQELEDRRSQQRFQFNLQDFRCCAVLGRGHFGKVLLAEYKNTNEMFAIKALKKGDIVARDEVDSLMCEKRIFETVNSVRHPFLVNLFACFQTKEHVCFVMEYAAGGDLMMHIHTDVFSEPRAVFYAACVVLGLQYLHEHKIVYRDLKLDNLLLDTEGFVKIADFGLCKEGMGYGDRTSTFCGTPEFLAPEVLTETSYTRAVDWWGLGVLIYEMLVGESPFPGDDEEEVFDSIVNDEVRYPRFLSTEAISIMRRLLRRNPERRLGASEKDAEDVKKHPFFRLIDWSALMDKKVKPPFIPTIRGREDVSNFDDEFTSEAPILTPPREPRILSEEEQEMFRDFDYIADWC
The test can be described thus: AGC kinase panel activity assay (Crosstide). The note with it: for PRK2 (%) activity: 1% DMSO = 100%. The protocol: as §1, §2

Where a chain is given by its changes, count along the chain named. Ends that are not written are not given here.

T3 sequence (P23443 1-421 T412E limits assumed): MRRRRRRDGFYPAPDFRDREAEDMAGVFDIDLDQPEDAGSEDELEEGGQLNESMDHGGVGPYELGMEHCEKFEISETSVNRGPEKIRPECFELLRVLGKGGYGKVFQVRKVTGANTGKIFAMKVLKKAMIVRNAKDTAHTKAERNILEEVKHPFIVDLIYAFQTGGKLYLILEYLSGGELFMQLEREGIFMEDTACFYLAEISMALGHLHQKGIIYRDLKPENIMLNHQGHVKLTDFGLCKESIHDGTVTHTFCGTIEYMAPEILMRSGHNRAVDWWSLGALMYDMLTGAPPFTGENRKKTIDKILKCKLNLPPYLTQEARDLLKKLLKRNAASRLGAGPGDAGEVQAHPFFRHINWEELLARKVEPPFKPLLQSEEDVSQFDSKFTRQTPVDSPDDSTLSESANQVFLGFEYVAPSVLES

As usually defined, the AC50 is the midpoint of the concentration-response curve, whichever way the signal moves. For `O=C(O)CSC(CC(=O)c1ccc(Cl)cc1)c1ccccc1` (stereo not shown) [Compound 1], the “activation of PDK1 mutant (in words)” value at GST-PDK1 [Arg131Ala] (Arg131 mutated to Ala) is recorded as “no longer activated”. Moreover, the figures for the AC50 at GST-PDK1 [Arg131Ala] and at GST-PDK1 [Val124Leu] were above 200 µM and 180 ± 60 µM, respectively. For the same compound, the Max. activity on GST-PDK1 [Arg131Ala] worked out at 1.09 ± 0.06 U/mg; at GST-PDK1 [Val124Leu], 1.1 ± 0.13 U/mg. Further, on S6K1-T2-[Thr412Glu] (20 μM), the “effect on S6K activity (in words)” value was “no significant effect”. Besides, the “S6K1 (%) activity” value on S6K1-T2-[Thr412Glu] (20 μM compound) is listed as 109%; on S6K1-T2-[Thr412Glu] (200 μM compound), 110%. Moreover, at PRK2 (20 μM), the “effect on PRK2 activity (in words)” value was “no significant effect”. In addition, the entries for the “PRK2 (%) activity” value at PRK2 (20 μM compound) and at PRK2 (200 μM compound) were 103% and 110%, respectively.
Consider `COC(=O)CSC(CC(=O)c1ccc(Cl)cc1)c1ccccc1` (stereo not shown) [Compound 2], for which the “S6K1 (%) activity” value at S6K1-T2-[Thr412Glu] (20 μM compound) turned out to be 109%; at S6K1-T2-[Thr412Glu] (200 μM compound), 120%. Moreover, the “PRK2 (%) activity” value is 106% on PRK2 (20 μM compound) and 89% on PRK2 (200 μM compound).
Turning to “REPRILSEEEQEMFRDFDYIADWC [PIFtide, reference compound]”, the AC50 is 3.7 ± 2 µM at GST-PDK1 [Arg131Ala] and 0.35 ± 0.2 µM at GST-PDK1 [Val124Leu]. For the same compound, the Max. activity stood at 1.24 ± 0.8 U/mg at GST-PDK1 [Arg131Ala] and 0.59 ± 0.04 U/mg on GST-PDK1 [Val124Leu].
